Experimental data reported in patent publication US20200024246A1, “POGOSTONE DERIVATIVES AND METHODS OF USING THE SAME” (Hamyard Associates LLC, priority 2018, published 2020).
Converted amounts (≈) assume the structure as drawn. “And” between values parts separate entries of the source, which are not always exact repeats. Equal values may be shown once.

Legend:
adult, female mosquitoes = test: Topical application on adult female mosquitoes (24-h mortality, 1-h knockdown); assay type: in vivo, mosquito
[1] = tested on: 3-4 instar Aedes aegypti larvae; test: Mosquito larvicide bioassay; assay type: in vivo; conditions: Aedes aegypti, 24 h
Protocol: Mosquito larvicide bioassays were performed by introducing various concentrations of test compounds (pyrone derivatives and rotenone) into acetone at various concentrations. 200 uL of these solutions were added to individual cups containing 10, 3-4 instar Aedes aegypti larvae and 25 mL of DI water. 2 mg of Tetramin™ was provided to each cup as a food source. […] Ataxia was used as the indicator of larval mortality. At least 5 concentrations were used which caused between 10 and 90% mortality. LC50 values were calculated using a PROC PROBIT model in SAS 9.4.

[2] = tested on: Western corn rootworm larvae; test: Seed treatment testing: rootworm survival (FIG. 2A); assay type: in vivo; conditions: seeds coated with compound; 1 week after introduction of larvae
Protocol: (§1) Corn seeds used were a non-transgenic type strain of corn to prevent confounding results. Germination typically occurred between 2-4 days after moistening.
(§2) Seed coating was accomplished by placing 20 g of corn seeds or soybeans into a container with approximately 1 mL of a 1:5 Elmer's glue:water solution with a small amount of Triton-X100™ (present 100 μL/5 mL). For solid compounds, 0.25 g of compound was subsequently introduced into the container. This mixture of seeds, Elmer's Glue/water/Triton-X 100™ solution, and active compound was mixed thoroughly until seeds were coated with the active ingredient.
(§3) For each treatment, 0.25 g of liquid compound was dissolved in 5 mL of hexane. 0.25 g of Hi-Sil 233 silica gel was introduced into this mixture of hexane and active ingredient. The solvent was blown-off using a rotary evaporator, allowing for the compound to adsorb to the silica gel. This 0.5 g of silica gel:active ingredient was then used as the solid material used for coating the seeds. The seeds were then coated with the same method used for solid compound.
(§4) Three corn seeds coated in pogostone derivative treatments were germinated in small, 2-oz. […] Germination of seedlings was also recorded at the end of the assay by counting the total number of seeds that produced roots out of the 3 seeds in each container/replicate and recorded as total percentage germination. […]

corn seeds = test: Seed treatment testing: survival/germination of treated corn seeds (FIG. 2B); assay type: in vivo; conditions: seeds coated with compound; 1 week after introduction of larvae
Protocol: as §1, §2, §3, §4

adult female mosquitoes = test: whole plant or invertebrate; conditions: for 1-hour Knockdown EC50 (μg/g mosquito) / LD50: topical; for LD50: 24 h, read-out: 24-hour Mortality LD50 (μg/g mosquito)
Protocol: The first group of DHAA-based derivatives that were tested included Formula A2, Formula B3, Formula C3, and Formula D3. A solution of 0.5% or 1.5% of each of these compounds was applied to the mosquitoes, as described above. […] Acetone was used as a control.

adult flies = test: Contact toxicity on treated filter paper; assay type: in vivo; conditions: filter paper treated with 1 mL in acetone; 24 hours
Protocol: Filter papers were treated with 1 mL of the disclosed compounds in acetone at varying concentrations, and the filter papers were placed in a dish. Ten adult flies were added to each dish and a sugar pad was added to each dish to ensure that any mortality could be attributed to the compound instead of starvation. Mortality was assessed at 24 hours.

[3] = tested on: Dandelion (Taraxacum officinale); test: Soil drench herbicidal test, dandelion; assay type: in vivo; conditions: Dandelion; 2 weeks after soil drench - 40 mL of 0.5% solution; Rep 1 and 2
Protocol: Dandelion (Taraxacum officinale) seeds were obtained from the Department of Agronomy at Iowa State University. Individual seeds were sown for each pot (6″ wide×4.5″ deep) with approximately 800 mL of soil for each plan. Only plants that germinated were used for the study. Plants were treated 1-2 weeks post emergence. Plants were watered every 2-3 days as needed. Giant foxtail (Setaria faberi) seeds were obtained from the Department of Agronomy at Iowa State University. Three seeds were sown for each pot (6″ wide×4.5″ deep) with approximately 800 mL of soil for each plan. Only plants that germinated were used for the study. Plants were treated 1-2 weeks post emergence. Plants were watered every 2-3 days as needed.
Formulations of the various active ingredients were created using the disclosed pogostone derivatives and Triton-X 100 to aid in the solvation of the active ingredient. Formulations consisted of 0.5% active ingredient by weight. […] 40 mL of formulation ([…] active ingredient) was applied to each pot containing approximately 3-5 plants per pot at 2-3 weeks after emergence. Observations were performed 3 days and 2 weeks after soil drench to determine the effects of the treatments on the various types and stages of plants. […]

house flies = test: Knockdown and mortality of DHAA-based derivatives on house flies; assay type: in vivo, house fly
Excerpt: Accordingly, further derivatives with structures similar to Formula C3 were synthesized and tested for knockdown potential and mortality in house flies and mosquitoes using an experimental design similar to the one described above. These compounds include Formula C5, Formula C6, Formula C7, Formula C8, Formula C9, and Formula C10.

soybean aphids = test: Soybean aphid leaf dip assay for DHAA-based derivatives; assay type: in vivo; conditions: 24 hours
Protocol: Isolated soybean leaves were dipped into a pyrone solution containing either 0.5% or 1.5% of select DHAA-based derivatives. The leaves were allowed to dry for 30 minutes, and then place in a dish. Ten soybean aphids were placed on each leaf. Mortality was assessed at 24 hours.

Question: What does the source list for Cc1cc(O)c(C(=O)CCC(C)C)c(=O)o1 [Pogostone, 3-(4-Methylpentanoyl)-4-hydroxy-2H]?
Answer: ED50 (adult, female mosquitoes; Mosquito Knockdown Properties (1 hour), topical application, read-out: KD50 (ug/g mosquito)): 18.4 mg/kg; LD50 (adult, female mosquitoes; Mosquito Toxicity (24 hours), topical application to pronotum, read-out: LD50 (ug/g mosquito)): 388 mg/kg; LC50 [1]: 18.3 µg/mL (≈ 81.6 µM); western corn rootworm mortality [2]: significant western corn rootworm mortality; phytotoxicity to treated corn seeds (corn seeds): Significant phytotoxicity; 1-hour Knockdown EC50 (μg/g mosquito) (adult female mosquitoes): 95.2 μg/g mosquito; LD50 (adult female mosquitoes): 262 mg/kg; percent mortality, 0.10% Concentration (adult flies): 95%; percent mortality, 0.25% Concentration (adult flies): 100%; percent mortality, 0.50% Concentration (adult flies): 100%

Question: For O=C(O)COc1ccc(Cl)cc1Cl [2,4-D, 2,4-dichlorophenoxyacetic acid], which “% mortality” value [3] is on record?
Answer: The value was 100% and 80%.

Question: Which “Mosquito Knockdown at 0.5% concentration” value (adult female mosquitoes; 0.5% concentration) does the source give for Cc1cc(O)c(C(=O)CC(O)C(C)C)c(=O)o1 (stereo not drawn) [Formula C10] here?
Answer: Its value is 100%.

Question: What about the “Mosquito Mortality at 0.5% concentration” value (adult female mosquitoes; 0.5% concentration) of the same compound?
Answer: Its value is 100%.

Question: What about the “Mosquito Knockdown at 1.5% concentration” value (adult female mosquitoes; 1.5% concentration) of the same compound?
Answer: The value was 100%.

Question: And the “Mosquito Mortality at 1.5% concentration” value (adult female mosquitoes; 1.5% concentration)?
Answer: The value was 100%.

Question: And the “1-hour Knockdown EC50 (μg/g mosquito)” value (adult female mosquitoes)?
Answer: The value was 49 μg/g mosquito.

Question: What about the LD50 (adult female mosquitoes) of the same compound?
Answer: Its LD50 is 29 mg/kg.

Question: What about the “ranking in knockdown and mortality screenings” value (adult female mosquitoes; words) of the same compound?
Answer: Its value is “performed the best in the initial knockdown and mortality screenings”.

Question: What about the “House Fly Knockdown at 0.5% concentration” value (house flies; 0.5% concentration) of the same compound?
Answer: Its value is 52.5%.

Question: What about the “House Fly Mortality at 0.5% concentration” value (house flies; 0.5% concentration) of the same compound?
Answer: Its value is 23%.

Question: And the “House Fly Knockdown at 1.5% concentration” value (house flies; 1.5% concentration)?
Answer: The value was 64%.

Question: And the “House Fly Mortality at 1.5% concentration” value (house flies; 1.5% concentration)?
Answer: Its value is 24%.

Question: What about the “percent mortality, 0.10% Concentration” value (adult flies) of the same compound?
Answer: Its value is 15%.

Question: What about the “percent mortality, 0.25% Concentration” value (adult flies) of the same compound?
Answer: The value was 0%.

Question: And the “percent mortality, 0.50% Concentration” value (adult flies)?
Answer: The value was 45%.

Question: What about the soybean aphids dead (soybean aphids; leaf dipped in 0.5% solution) of the same compound?
Answer: Its soybean aphids dead is “Roughly 67%”.

Question: What about the soybean aphids dead (soybean aphids; leaf dipped in 1.5% solution) of the same compound?
Answer: Its soybean aphids dead is “Roughly 90%”.
